Experimental data: patent US20120094964A1, “SULFAMOYL BENZOIC ACID DERIVATIVES AS TRPM8 ANTAGONISTS” (priority 2009, published 2012)

Each compound was assayed against T1, human TRPM8 (Homo sapiens, UniProt Q7Z2W7) (assay: In Vitro human TRPM8 Functional Assay (intracellular Ca2+, Fluo4, FDSS, menthol activation)). Settings: HEK293 cells stably expressing human TRPM8; activation with L-(-)-Menthol; 11-point dose-response.
T1 construct: expressed in transfected cells
Type: cell-based
Description: In Vitro human TRPM8 Functional Assay
The functional activity of compounds was determined by measuring changes in intracellular calcium concentration using a Ca^2+-sensitive fluorescent dye, Fluo4 (Molecular Probes). The changes in fluorescent signal were monitored by the cell imaging technology by Hamamatsu Photonics's Functional Drug Screening System (FDSS).
HEK293 cells stably expressing human TRPM8 were grown in T175 flasks, in a 5% CO2 humidified incubator to about 80% confluence. Media composition consisted of Dulbecco's Modified Eagle Medium (high glucose), 10% fetal calf serum (FCS), 100 units/ml Penicillin, 100 microg/ml Streptomycin and 600 microg/ml Geneticine.
1. Plate-out HEK293-TRPM8 cells (40 microL medium containing 30,000 cells per well) into poly-D-lysine coated 384-well plates (BD FALCON) at 24 hours prior to assay.
1. […] 2. […] 3. Place the plate at room temperature in dark for 1 hour. 4. […] 5. Add 20 microL of compound solutions into each well and leave the plate for 5 minutes under the dark at room temperature. 6. Measure activity by FDSS as follows: • Set the assay plate on the stacker of FDSS • Start the detection of fluorescence intensity • After 30 sec, add 20 microL of 90 microM L-(−)-Menthol
IC50 values for compounds of the present invention were determined from 11-point dose-response studies. Curves were generated using the average of duplicate wells for each data point. Finally, the IC50 values are calculated with the best-fit dose curve determined by XLfit (ID Business Solutions Ltd.).

T1 sequence (Q7Z2W7 whole entry): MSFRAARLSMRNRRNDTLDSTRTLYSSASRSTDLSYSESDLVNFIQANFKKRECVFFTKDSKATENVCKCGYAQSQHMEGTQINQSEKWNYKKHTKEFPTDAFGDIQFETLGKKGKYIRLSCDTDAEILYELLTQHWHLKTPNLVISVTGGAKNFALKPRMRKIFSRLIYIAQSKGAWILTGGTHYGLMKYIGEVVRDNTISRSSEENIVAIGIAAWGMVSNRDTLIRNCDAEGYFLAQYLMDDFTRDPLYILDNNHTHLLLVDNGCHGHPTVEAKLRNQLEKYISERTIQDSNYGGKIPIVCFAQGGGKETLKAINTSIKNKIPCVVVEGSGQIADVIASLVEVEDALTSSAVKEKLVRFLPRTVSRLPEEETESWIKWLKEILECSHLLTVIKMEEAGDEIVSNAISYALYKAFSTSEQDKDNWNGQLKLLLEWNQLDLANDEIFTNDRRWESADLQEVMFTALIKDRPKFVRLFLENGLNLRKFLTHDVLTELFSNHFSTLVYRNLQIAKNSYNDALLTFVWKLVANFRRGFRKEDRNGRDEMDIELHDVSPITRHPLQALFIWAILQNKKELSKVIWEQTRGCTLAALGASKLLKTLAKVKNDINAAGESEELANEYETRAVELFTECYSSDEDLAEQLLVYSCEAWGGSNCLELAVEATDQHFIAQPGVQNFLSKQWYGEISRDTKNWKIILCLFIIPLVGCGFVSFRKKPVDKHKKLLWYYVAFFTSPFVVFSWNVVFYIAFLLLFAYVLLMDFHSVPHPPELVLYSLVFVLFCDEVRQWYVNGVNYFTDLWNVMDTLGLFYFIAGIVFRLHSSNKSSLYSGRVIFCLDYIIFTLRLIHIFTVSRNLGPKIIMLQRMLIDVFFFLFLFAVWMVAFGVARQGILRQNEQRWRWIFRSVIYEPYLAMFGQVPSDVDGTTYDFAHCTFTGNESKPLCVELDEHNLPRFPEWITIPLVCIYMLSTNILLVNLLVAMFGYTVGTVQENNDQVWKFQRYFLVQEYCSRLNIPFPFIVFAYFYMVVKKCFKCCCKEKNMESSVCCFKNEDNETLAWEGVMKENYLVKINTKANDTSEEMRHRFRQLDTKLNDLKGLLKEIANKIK

Structure (SMILES) | IC50 [µM]
O=C(O)c1ccc(S(=O)(=O)N(Cc2ccccc2)c2ccc(C(F)(F)F)cc2Cl)cc1 [Example 56, 4-(N-Benzyl-N-(2-chloro-4-(trifluoromethyl)phenyl)sulfamoyl)benzoic acid] | < 1
O=C(O)c1ccc(S(=O)(=O)N(Cc2ccc(Cl)c(Cl)c2)c2ncc(C(F)(F)F)cc2Cl)cc1 [Example 47, 4-(N-(3-Chloro-5-(trifluoromethyl)pyridin-2-yl)-N-(3,4-dichlorobenzyl)sulfamoyl)benzoic acid] | < 1
O=C(O)c1ccc(S(=O)(=O)N(Cc2ccc(-c3cccs3)cc2)c2ncc(C(F)(F)F)cc2Cl)cc1 [Example 155, 4-(N-(3-Chloro-5-(trifluoromethyl)pyridin-2-yl)-N-(4-(thiophen-2-yl)benzyl)sulfamoyl)benzoic acid] | < 1
O=C(O)Cc1ccc(S(=O)(=O)N(Cc2ccccc2)c2ncc(C(F)(F)F)cc2Cl)cc1 [Example 147, 2-(4-(N-Benzyl-N-(3-chloro-5-(trifluoromethyl)pyridin-2-yl)sulfamoyl)phenyl)acetic acid] | < 1
O=C(O)c1ccc(S(=O)(=O)N(CC2CC2)c2ncc(C(F)(F)F)cc2Cl)cc1 [Example 29, 4-(N-(3-Chloro-5-(trifluoromethyl)pyridin-2-yl)-N-(cyclopropylmethyl)sulfamoyl)benzoic acid] | 1 to 10
O=C(O)c1ccc(S(=O)(=O)N(CC2CCN(c3ccccn3)CC2)c2ncc(C(F)(F)F)cc2Cl)cc1 [Example 142, 4-(N-(3-Chloro-5-(trifluoromethyl)pyridin-2-yl)-N-((1-(pyridin-2-yl)piperidin-4-yl)methyl)sulfamoyl)benzoic acid] | < 1
COc1cccc(C(C)N(c2cccc(Cl)c2)S(=O)(=O)c2ccc(F)cc2C)c1 (stereo not shown) [Example 139, N-(3-Chlorophenyl)-4-fluoro-N-(1-(3-methoxy-phenyl)ethyl)-2-methyl-benzenesulfonamide] | 1 to 10
O=C(O)c1ccc(S(=O)(=O)N(Cc2ccccc2)c2cccc(C(F)(F)F)n2)cc1 [Example 22, 4-(N-Benzyl-N-(6-(trifluoromethyl)pyridin-2-yl)sulfamoyl)benzoic acid] | 1 to 10
O=C(O)c1ccc(S(=O)(=O)N(Cc2ccccn2)c2ccc(C(F)(F)F)cc2Cl)cc1 [Example 82, 4-(N-(2-Chloro-4-(trifluoromethyl)phenyl)-N-(pyridin-2-ylmethyl)sulfamoyl)benzoic acid] | 1 to 10
CN(C)C(=O)c1ccc(S(=O)(=O)N(Cc2ccccc2)c2ncc(C(F)(F)F)cc2Cl)cc1 [Example 12, 4-(Benzyl(3-chloro-5-(trifluoromethyl)pyridin-2-yl)sulfamoyl)-N,N-dimethylbenzamide] | < 1
Cc1cc(C(F)(F)F)cnc1N(Cc1ccccc1)S(=O)(=O)c1ccc(C(=O)O)cc1 [Example 153, 4-(N-Benzyl-N-(3-methyl-5-(trifluoromethyl)pyridin-2-yl)sulfamoyl)benzoic acid] | < 1
COc1cccc(N(C(C)c2ccccc2)S(=O)(=O)c2ccc(F)c(Cl)c2)c1 (stereo not shown) [Example 94, 3-Chloro-4-fluoro-N-(3-methoxyphenyl)-N-(1-phenylethyl)benzene-sulfonamide] | 1 to 10
COc1ccc(OC)c(C(C)N(c2ccc(C)cc2)S(=O)(=O)c2ccc(F)cc2C)c1 (stereo not shown) [Example 96, N-(1-(2,5-Dimethoxyphenyl)ethyl)-4-fluoro-2-methyl-N-p-tolylbenzenesulfonamide] | 1 to 10
COc1ccc(CN(c2ncc(C(F)(F)F)cc2Cl)S(=O)(=O)c2ccc(C(=O)O)cc2)cc1 [Example 16, 4-(N-(3-Chloro-5-(trifluoromethyl)pyridin-2-yl)-N-(4-methoxybenzyl)sulfamoyl)benzoic acid] | < 1
O=C(O)c1ccc(S(=O)(=O)N(Cc2ccccc2)c2ncc(C(F)(F)F)cc2Cl)c(Cl)c1 [Example 181, 4-(N-Benzyl-N-(3-chloro-5-(trifluoromethyl)pyridin-2-yl)sulfamoyl)-3-chlorobenzoic acid] | < 1
O=C(O)c1ccc(S(=O)(=O)N(CC2CCC2)c2ncc(C(F)(F)F)cc2Cl)cc1 [Example 171, 4-(N-(3-Chloro-5-(trifluoromethyl)pyridin-2-yl)-N-(cyclobutylmethyl)sulfamoyl)benzoic acid] | < 1
O=C(O)c1ccc(S(=O)(=O)N(Cc2noc(-c3ccccc3)n2)c2ncc(C(F)(F)F)cc2Cl)cc1 [Example 199, 4-(N-(3-Chloro-5-(trifluoromethyl)pyridin-2-yl)-N-((5-phenyl-1,2,4-oxadiazol-3-yl)methyl)sulfamoyl)benzoic acid] | < 1

Structure (SMILES) | IC50 [µM]
O=C(O)c1ccc(S(=O)(=O)N(Cc2ccc(Cl)cc2C(F)(F)F)c2ncc(Cl)cc2Cl)cc1 [Example 72, 4-(N-(4-Chloro-2-(trifluoromethyl)benzyl)-N-(3,5-dichloropyridin-2-yl)sulfamoyl)benzoic acid] | < 1
O=C(O)c1ccc(S(=O)(=O)N(Cc2cc(F)cc(F)c2)c2ncc(C(F)(F)F)cc2Cl)cc1 [Example 42, 4-(N-(3-Chloro-5-(trifluoromethyl)pyridin-2-yl)-N-(3,5-difluorobenzyl)sulfamoyl)benzoic acid] | < 1
O=C(O)c1ccc(S(=O)(=O)N(CCC2CCCCC2)c2ncc(C(F)(F)F)cc2Cl)cc1 [Example 19, 4-(N-(3-Chloro-5-(trifluoromethyl)pyridin-2-yl)-N-(2-cyclohexylethyl)sulfamoyl)benzoic acid] | < 1
CCOc1ccccc1N(Cc1ccc(Cl)cc1)S(=O)(=O)c1cccc(C(=O)O)c1 [Example 125, 3-(N-(4-Chlorobenzyl)-N-(2-ethoxyphenyl)sulfamoyl) benzoic acid] | 1 to 10
Cc1cc(Cl)cnc1N(Cc1ccc(OC(F)(F)F)cc1)S(=O)(=O)c1ccc(C(=O)O)cc1 [Example 78, 4-(N-(5-Chloro-3-methylpyridin-2-yl)-N-(4-(trifluoromethoxy)benzyl)sulfamoyl)benzoic acid] | < 1
O=C(O)c1ccc(Cl)c(S(=O)(=O)N(Cc2ccccc2)c2ccc(Cl)cc2)c1 [Example 110, 3-(N-Benzyl-N-(4-chlorophenyl)sulfamoyl)-4-chlorobenzoic acid] | 1 to 10
O=C(O)c1ccc(S(=O)(=O)N(Cc2ccc(F)c(Cl)c2)c2ncc(C(F)(F)F)cc2Cl)cc1 [Example 71, 4-(N-(3-Chloro-4-fluorobenzyl)-N-(3-chloro-5-(trifluoromethyl)pyridin-2-yl)sulfamoyl)benzoic acid] | < 1
COc1ccc(-c2ccc(CN(c3ncc(C(F)(F)F)cc3Cl)S(=O)(=O)c3ccc(C(=O)O)cc3)cc2)cn1 [Example 162, 4-(N-(3-chloro-5-(trifluoromethyl)pyridin-2-yl)-N-(4-(6-methoxypyridin-3-yl)-benzyl)sulfamoyl)benzoic acid] | < 1
COc1cccc(N(C(C)c2ccccc2C)S(=O)(=O)c2ccc(C)c(Cl)c2)c1 (stereo not shown) [Example 95, 3-Chloro-N-(3-methoxy-phenyl)-4-methyl-N-(1-o-tolylethyl)benzene-sulfonamide] | 10 to 30
O=C(O)c1ccc(S(=O)(=O)N(Cc2ccccc2)c2ncc(-c3ccco3)cc2Cl)cc1 [Example 183, 4-(N-Benzyl-N-(3-chloro-5-(furan-2-yl)pyridin-2-yl)sulfamoyl)benzoic acid] | < 1
O=C(O)c1cccc(S(=O)(=O)N(Cc2ccccc2)c2cccc(C(F)(F)F)c2)c1 [Example 111, 3-(N-Benzyl-N-(3-(trifluoromethyl)phenyl)sulfamoyl)benzoic acid] | 1 to 10
O=C(O)c1ccc(S(=O)(=O)N(Cc2ccc(Cl)cc2)c2ncc(C(F)(F)F)cc2Cl)cc1 [Example 32, 4-(N-(3-Chloro-5-(trifluoromethyl)pyridin-2-yl)-N-(4-chlorobenzyl)sulfamoyl)benzoic acid] | < 1
C[Si](C)(C)c1ccc(CN(c2ncc(C(F)(F)F)cc2Cl)S(=O)(=O)c2ccc(C(=O)O)cc2)cc1 [Example 140, 4-(N-(3-Chloro-5-(trifluoromethyl)pyridin-2-yl)-N-(4-(trimethylsilyl)benzyl)sulfamoyl)benzoic acid] | < 1
CN(C)S(=O)(=O)Nc1ccc(S(=O)(=O)N(Cc2ccccc2)c2ncc(C(F)(F)F)cc2Cl)cc1 [Example 194, N-Benzyl-N-(3-chloro-5-(trifluoromethyl)pyridin-2-yl)-4-((N,N-dimethylsulfamoyl)amino)benzenesulfonamide] | < 1
O=C(O)c1ccc(S(=O)(=O)N(Cc2ccc(Cl)c(F)c2)c2ncc(Cl)cc2Cl)cc1 [Example 62, 4-(N-(4-Chloro-3-fluorobenzyl)-N-(3,5-dichloropyridin-2-yl)sulfamoyl)benzoic acid] | < 1
O=C(O)c1cccc(S(=O)(=O)N(Cc2ccccc2)c2ccc(Cl)cc2)c1 [Example 115, 3-(N-Benzyl-N-(4-chlorophenyl)sulfamoyl) benzoic acid] | 1 to 10
Cc1ccc(S(=O)(=O)N(Cc2ccccc2)c2ccccn2)cc1[N+](=O)[O-] [Example 133, N-Benzyl-4-methyl-3-nitro-N-(pyridin-2-yl) benzenesulfonamide] | 1 to 10
